According to patent publication US20240067668A1, “HETEROARYL DERIVATIVE COMPOUND AND USE THEREOF” (VORONOI INC., priority 2020, published 2024):

What was measured:
[1] = tested on: BaF3-EGFR (WT) cells; assay: Inhibitory activity on Ba/F3 cell proliferation (CellTiter-Glo, 72 hours); format: cell-based; conditions: Ba/F3 cells expressing EGFR WT
Summary of the method: (§1)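 Ba/F3 cells expressing wild-type EGFR or EGFR Del19/T790M/C797S, 3×10^3 per well, exposed 72 h at 37 °C to compound at 12 threefold dilutions, 0.00005-10 μM final. Viability by CellTiter-Glo 2.0; GI50 derived from growth relative to DMSO-treated cells.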

[2] = tested on: BaF3-EGFR (Del19/T790M/C797S) cells; assay: as above; format: cell-based; conditions: Ba/F3 cells expressing EGFR Del19/T790M/C797S
Summary of the method: as §1

[3] = target: EGFR Del19/T790M/C797S (Homo sapiens, UniProt P00533, C797S/T790M, form not given); assay: Enzyme IC50, EGFR Del19/T790M/C797S; format: biochemical
EGFR Del19/T790M/C797S, sequence (P00533 25-1210 T790M/C797S, form open): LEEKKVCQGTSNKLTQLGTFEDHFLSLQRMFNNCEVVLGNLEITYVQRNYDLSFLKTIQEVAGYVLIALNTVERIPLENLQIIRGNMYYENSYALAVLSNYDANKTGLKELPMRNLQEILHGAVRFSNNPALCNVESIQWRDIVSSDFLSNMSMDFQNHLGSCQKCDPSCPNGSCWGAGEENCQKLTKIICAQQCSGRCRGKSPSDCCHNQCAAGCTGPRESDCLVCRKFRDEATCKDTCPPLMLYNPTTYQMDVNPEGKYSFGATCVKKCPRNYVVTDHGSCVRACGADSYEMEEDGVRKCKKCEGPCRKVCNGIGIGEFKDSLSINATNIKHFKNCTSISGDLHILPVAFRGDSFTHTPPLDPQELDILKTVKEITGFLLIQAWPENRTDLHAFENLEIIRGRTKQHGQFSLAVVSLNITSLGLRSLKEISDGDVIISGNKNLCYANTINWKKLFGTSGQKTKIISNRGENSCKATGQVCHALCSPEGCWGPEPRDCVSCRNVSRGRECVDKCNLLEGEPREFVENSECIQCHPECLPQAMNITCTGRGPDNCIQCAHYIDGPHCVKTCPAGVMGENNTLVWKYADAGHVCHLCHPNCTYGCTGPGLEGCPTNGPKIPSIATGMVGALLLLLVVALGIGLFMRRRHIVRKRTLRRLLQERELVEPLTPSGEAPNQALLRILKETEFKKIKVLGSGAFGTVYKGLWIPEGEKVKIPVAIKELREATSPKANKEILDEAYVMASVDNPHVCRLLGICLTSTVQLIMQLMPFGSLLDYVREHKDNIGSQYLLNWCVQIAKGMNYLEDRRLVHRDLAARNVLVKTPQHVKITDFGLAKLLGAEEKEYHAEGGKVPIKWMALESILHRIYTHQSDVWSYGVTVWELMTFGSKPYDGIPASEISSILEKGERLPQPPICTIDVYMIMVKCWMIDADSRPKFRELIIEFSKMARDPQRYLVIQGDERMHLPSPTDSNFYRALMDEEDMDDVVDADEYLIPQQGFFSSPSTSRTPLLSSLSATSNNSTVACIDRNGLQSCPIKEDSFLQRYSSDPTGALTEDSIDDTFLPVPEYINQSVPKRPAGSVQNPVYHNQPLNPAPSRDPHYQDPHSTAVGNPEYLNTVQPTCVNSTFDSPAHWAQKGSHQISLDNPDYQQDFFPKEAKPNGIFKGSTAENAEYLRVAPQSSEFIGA

| Compound | GI50 [1] [µM] | GI50 [2] [µM] | IC50 [3] [µM] |
| --- | --- | --- | --- |
| Cc1cc(Nc2nc(Nc3ccc4nccnc4c3P(C)(C)=O)c3cc[nH]c3n2)c2c(c1N1CCOCC1)CCO2 [Example 122, dimethyl (6-((2-((5-methyl-4-morpholino-2,3-dihydrobenzo-furan-7-yl)amino)-7H-pyrrolo[2,3-d]pyrimidin-4-yl)amino)quinoxalin-5-yl)phosphine oxide] | > 0.1 | > 0.1 | ≤ 0.05 |
| COc1cc(N2CCN(C)CC2)c(-c2ccccc2)cc1Nc1nc(Nc2ccc3nccnc3c2P(C)(C)=O)c2cc[nH]c2n1 [Example 72, (6-((2-((4-methoxy-6-(4-methylpiperazin-1-yl)-[1,1′-biphenyl]-3-yl)amino)-7H-pyrrolo[2,3-d]pyrimidin-4-yl)amino)quinoxalin-5-yl)dimethyl-phosphine oxide] | > 0.1 | > 0.1 | ≤ 0.05 |
| COc1nc(N2CCN(C)CC2)c(-c2cnn(C)c2)cc1Nc1nc(Nc2ccc3nccnc3c2P(C)(C)=O)c2cc[nH]c2n1 [Example 44, (6-((2-((2-methoxy-5-(1-methyl-1H-pyrazol-4-yl)-6-(4-methyl-piperazin-1-yl)pyridin-3-yl)amino)-7H-pyrrolo[2,3-d]pyrimidin-4-yl)amino)quinoxalin-5-yl)dimethyl-phosphine oxide] | > 0.1 | ≤ 0.05 | ≤ 0.05 |
| COc1cc(N2C[C@@H]3C[C@H]2CO3)c(-c2cnn(C)c2)cc1Nc1nc(Nc2ccc3nccnc3c2P(C)(C)=O)c2cc[nH]c2n1 [Example 26, (6-((2-((4-((1s,4S)-2-oxa-5-azabicyclo [2.2.1]heptan-5-yl)-2-methoxy-5-(1-methyl-1H-pyrazol-4-yl)phenyl)amino)-7H-pyrrolo[2,3-d]pyrimidin-4-yl)amino)quinoxalin-5-yl)dimethyl-phosphine oxide] | > 0.1 | ≤ 0.05 | ≤ 0.05 |
| COc1cc(N2CC3(COC3)C2)c(-c2cnn(C)c2)cc1Nc1nc(Nc2ccc3nccnc3c2P(C)(C)=O)c2cc[nH]c2n1 [Example 29, (6-((2-((2-methoxy-5-(1-methyl-1H-pyrazol-4-yl)-4-(2-oxa-6-azaspiro[3.3]heptan-6-yl)phenyl)amino)-7H-pyrrolo[2,3-d]pyrimidin-4-yl)amino)quinoxalin-5-yl)dimethyl-phosphine oxide] | > 0.1 | > 0.1 | ≤ 0.05 |
| COc1cc(N2CCN(C)CC2)c(-c2cnn(C)c2)cc1Nc1nc(Nc2cnc3ccccc3c2P(C)(C)=O)c2cc[nH]c2n1 [Example 89, (3-((2-((2-methoxy-5-(1-methyl-1H-pyrazol-4-yl)-4-(4-methylpiperazin-1-yl)phenyl)amino)-7H-pyrrolo[2,3-d]pyrimidin-4-yl)amino)quinolin-4-yl)dimethyl-phosphine oxide] | > 0.1 | > 0.1 | ≤ 0.05 |
| COc1cc(N2CCC(N3CCN(C)CC3)CC2)c(C)cc1Nc1nc(Nc2ccc3nccnc3c2P(C)(C)=O)c2nc[nH]c2n1 [Example 104, (6-((2-((2-methoxy-5-methyl-4-(4-(4-methylpiperazin-1-yl)piperidin-1-yl)phenyl)amino)-9H-purin-6-yl)amino)quinoxalin-5-yl)dimethyl-phosphine oxide] | > 0.1 | > 0.1 | ≤ 0.05 |
| COc1cc(N2CCN(C)CC2)c(-c2cnn(C)c2)cc1Nc1nc(Nc2ccc3nccnc3c2P(C)(C)=O)c2cc[nH]c2n1 [Example 21, (6-((2-((2-methoxy-5-(1-methyl-1H-pyrazol-4-yl)-4-(4-methylpiperazin-1-yl)phenyl)amino)-7H-pyrrolo[2,3-d]pyrimidin-4-yl)amino)quinoxalin-5-yl) dimethyl-phosphine oxide] | > 0.1 | ≤ 0.05 | ≤ 0.05 |
| COc1cc(N2CCC3(CC2)COC3)c(-c2cnn(C)c2)cc1Nc1nc(Nc2ccc3nccnc3c2P(C)(C)=O)c2cc[nH]c2n1 [Example 32, (6-((2-((2-methoxy-5-(1-methyl-1H-pyrazol-4-yl)-4-(2-oxa-7-azaspiro[3.5]nonane-7-yl)phenyl)amino)-7H-pyrrolo[2,3-d]pyrimidin-4-yl)amino)quinoxalin-5-yl)dimethyl-phosphine oxide] | > 0.1 | ≤ 0.05 | ≤ 0.05 |
| CCN1CCN(C2CCN(c3cc(OC)c(Nc4nc(Nc5ccc6nccnc6c5P(C)(C)=O)c5cc[nH]c5n4)cc3C)CC2)CC1 [Example 61, (6-((2-((4-(4-(4-ethylpiperazin-1-yl)piperidin-1-yl)-2-methoxy-5-methylphenyl)amino)-7H-pyrrolo[2,3-d]pyrimidin-4-yl)amino)quinoxalin-5-yl)dimethyl-phosphine oxide] | > 0.1 | 0.05 to 0.1 | ≤ 0.05 |
| Cn1cc(-c2cc(Nc3nc(Nc4ccc5nccnc5c4P(C)(C)=O)c4cc[nH]c4n3)ccc2N2CCOCC2)cn1 [Example 34, dimethyl (6-((2-((3-(1-methyl-1H-pyrazol-4-yl)-4-morpholino-phenyl)amino)-7H-pyrrolo[2,3-d]pyrimidin-4-yl)amino)quinoxalin-5-yl)phosphine oxide] | > 0.1 | ≤ 0.05 | ≤ 0.05 |
| COc1cc(F)c(-c2cnn(C)c2)cc1Nc1nc(Nc2ccc3nccnc3c2P(C)(C)=O)c2cc[nH]c2n1 [Example 31, (6-((2-((4-fluoro-2-methoxy-5-(1-methyl-1H-pyrazol-4-yl)phenyl)amino)-7H-pyrrolo[2,3-d]pyrimidin-4-yl)amino)quinoxalin-5-yl)dimethyl-phosphine oxide] | > 0.1 | > 0.1 | ≤ 0.05 |
| Cn1cc(-c2cc(N3CCOCC3)c3c(c2Nc2nc(Nc4ccc5nccnc5c4P(C)(C)=O)c4cc[nH]c4n2)OCCO3)cn1 [Example 135, dimethyl (6-((2-((6-(1-methyl-1H-pyrazol-4-yl)-8-morpholino-2,3-dihydrobenzo [b][1,4]dioxin-5-yl)amino)-7H-pyrrolo[2,3-d]pyrimidin-4-yl)amino)quinoxalin-5-yl)phosphine oxide] | > 0.1 | > 0.1 | > 0.1 |
| Cc1cc(Nc2nc(Nc3ccc4nccnc4c3P(C)(C)=O)c3cc[nH]c3n2)c(OCC(F)(F)F)cc1N1CCC(N2CCN(C)CC2)CC1 [Example 8, dimethyl (6-((2-((5-methyl-4-(4-(4-methylpiperazin-1-yl)piperidin-1-yl)-2-(2,2,2-trifluoroethoxy)phenyl)amino)-7H-pyrrolo[2,3-d]pyrimidin-4-yl)amino)quinoxalin-5-yl)phosphine oxide] | > 0.1 | ≤ 0.05 | ≤ 0.05 |

Other lines, results leading:

| GI50 [1] [µM] | GI50 [2] [µM] | IC50 [3] [µM] | Compound |
| --- | --- | --- | --- |
| > 0.1 | > 0.1 | > 0.1 | Cn1nccc1-c1ccc(Nc2nc(Nc3ccc4nccnc4c3P(C)(C)=O)c3cc[nH]c3n2)c2c1OCCO2 [Example 131, dimethyl (6-((2-((8-(1-methyl-1H-pyrazol-5-yl)-2,3-dihydrobenzo [b][1,4]dioxin-5-yl)amino)-7H-pyrrolo[2,3-d]pyrimidin-4-yl)amino)quinoxalin-5-yl)phosphine oxide] |
| > 0.1 | > 0.1 | > 0.1 | CCOc1ccc(C(F)(F)F)cc1Nc1nc(Nc2ccc3nccnc3c2P(C)(C)=O)c2cc[nH]c2n1 [Example 69, (6-((2-((2-ethoxy-5-(trifluoromethyl)phenyl)amino)-7H-pyrrolo[2,3-d]pyrimidin-4-yl)amino)quinoxalin-5-yl)dimethyl-phosphine oxide] |
| > 0.1 | ≤ 0.05 | ≤ 0.05 | COc1cc(N2C[C@@H](C)O[C@@H](C)C2)c(-c2cnn(C)c2)cc1Nc1nc(Nc2ccc3nccnc3c2P(C)(C)=O)c2cc[nH]c2n1 [Example 23, (6-((2-((4-((2s, 6R)-2,6-dimethyl-morpholino)-2-methoxy-5-(1-methyl-1H-pyrazol-4-yl)phenyl)amino)-7H-pyrrolo[2,3-d]pyrimidin-4-yl)amino)quinoxalin-5-yl)dimethyl-phosphine oxide] |
| > 0.1 | ≤ 0.05 | ≤ 0.05 | Cn1cc(-c2cc(Nc3nc(Nc4ccc5nccnc5c4P(C)(C)=O)c4cc[nH]c4n3)c(OCC(F)(F)F)cc2N2CCC(N3CCOCC3)CC2)cn1 [Example 6, dimethyl (6-((2-((5-(1-methyl-1H-pyrazol-4-yl)-4-(4-morpholino-piperidin-1-yl)-2-(2,2,2-trifluoroethoxy)phenyl)amino)-7H-pyrrolo[2,3-d]pyrimidin-4-yl)amino)quinoxalin-5-yl)phosphine oxide] |
| > 0.1 | ≤ 0.05 | ≤ 0.05 | COc1cc(N2CCC(N3CCN(C)CC3)CC2)c(-c2cnn(C)c2)cc1Nc1nc(Nc2ccc3nccnc3c2P(C)(C)=O)c2cc[nH]c2n1 [Example 24, (6-((2-((2-methoxy-5-(1-methyl-1H-pyrazol-4-yl)-4-(4-(4-methylpiperazin-1-yl)piperidin-1-yl)phenyl)amino)-7H-pyrrolo[2,3-d]pyrimidin-4-yl)amino)quinoxalin-5-yl)dimethyl-phosphine oxide] |
| > 0.1 | > 0.1 | ≤ 0.05 | C=Cc1cc(Nc2nc(Nc3ccc4nccnc4c3P(C)(C)=O)c3cc[nH]c3n2)c(OC)cc1N1CCN(C)CC1 [Example 82, (6-((2-((2-methoxy-4-(4-methylpiperazin-1-yl)-5-vinylphenyl)amino)-7H-pyrrolo[2,3-d]pyrimidin-4-yl)amino)quinoxalin-5-yl)dimethyl-phosphine oxide] |
| > 0.1 | ≤ 0.05 | ≤ 0.05 | COc1cc(N2CCC(N3CCN(C)CC3)CC2)c(Cl)cc1Nc1nc(Nc2ccc3nccnc3c2P(C)(C)=O)c2cc[nH]c2n1 [Example 56, (6-((2-((5-chloro-2-methoxy-4-(4-(4-methylpiperazin-1-yl)piperidin-1-yl)phenyl)amino)-7H-pyrrolo[2,3-d]pyrimidin-4-yl)amino)quinoxalin-5-yl)dimethyl-phosphine oxide] |
